Experimental data taken from ChEMBL document CHEMBL4033739, “Design and synthesis of novel δ opioid receptor agonists with an azatricyclodecane skeleton for improving blood-brain barrier penetration” (Bioorg Med Chem Lett, 2017).

What was measured:
[1] = target: T1, Delta-type opioid receptor (Homo sapiens, UniProt P41143); assay: Displacement of [3H]DPDPE from human recombinant DOR expressed in CHO cell membranes
Mu-type opioid receptor [2] = target: T2, Mu-type opioid receptor (Homo sapiens, UniProt P35372); assay: Displacement of [3H]DAMGO from human recombinant MOR expressed in CHO cell membranes
T2 sequence (P35372 whole entry): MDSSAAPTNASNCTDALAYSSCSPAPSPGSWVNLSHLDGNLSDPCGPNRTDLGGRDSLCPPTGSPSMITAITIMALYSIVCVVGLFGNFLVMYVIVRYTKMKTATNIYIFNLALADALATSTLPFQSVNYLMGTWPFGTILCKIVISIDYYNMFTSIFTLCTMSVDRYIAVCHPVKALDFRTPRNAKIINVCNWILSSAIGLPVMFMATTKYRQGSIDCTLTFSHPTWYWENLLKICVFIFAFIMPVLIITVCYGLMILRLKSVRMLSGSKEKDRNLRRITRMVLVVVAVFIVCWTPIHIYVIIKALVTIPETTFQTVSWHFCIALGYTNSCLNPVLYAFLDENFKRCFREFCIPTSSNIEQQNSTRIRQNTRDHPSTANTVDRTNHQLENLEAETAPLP

[3] = target: T3, Kappa-type opioid receptor (Homo sapiens, UniProt P41145); assay: Displacement of [3H]U-69,593 from human recombinant KOR expressed in CHO cell membranes
T3 sequence (P41145 whole entry): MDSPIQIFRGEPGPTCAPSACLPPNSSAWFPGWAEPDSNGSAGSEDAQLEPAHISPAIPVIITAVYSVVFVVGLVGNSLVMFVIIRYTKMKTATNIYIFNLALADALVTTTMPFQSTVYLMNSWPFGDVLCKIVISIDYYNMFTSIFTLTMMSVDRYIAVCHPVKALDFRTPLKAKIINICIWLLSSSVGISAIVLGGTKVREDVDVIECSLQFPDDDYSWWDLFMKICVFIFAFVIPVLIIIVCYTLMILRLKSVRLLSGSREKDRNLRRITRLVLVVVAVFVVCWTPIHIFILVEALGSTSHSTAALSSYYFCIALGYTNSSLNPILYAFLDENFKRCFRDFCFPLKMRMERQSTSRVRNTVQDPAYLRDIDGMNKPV

Homo sapiens [4] = species: Homo sapiens; assay: Selectivity index, ratio of Ki for human recombinant MOR expressed in CHO cell membranes to Ki for human recombinant DOR expressed in CHO cell membranes; format: cell-based
Homo sapiens [5] = species: Homo sapiens; assay: Selectivity index, ratio of Ki for human recombinant KOR expressed in CHO cell membranes to Ki for human recombinant DOR expressed in CHO cell membranes; format: cell-based
[6] = target: T1, Delta-type opioid receptor; assay: Agonist activity at human recombinant DOR expressed in CHO cells assessed as cAMP accumulation; format: functional, cell-based
[7] = target: T1, Delta-type opioid receptor; assay: Agonist activity at human recombinant DOR expressed in CHO cells assessed as cAMP accumulation relative to SNC80; format: functional, cell-based
Mu-type opioid receptor [8] = target: T2, Mu-type opioid receptor; assay: Agonist activity at human recombinant MOR expressed in CHO cells assessed as cAMP accumulation; format: functional, cell-based
[9] = target: T3, Kappa-type opioid receptor; assay: Agonist activity at human recombinant KOR expressed in CHO cells assessed as cAMP accumulation; format: functional, cell-based
[10] = target: T3, Kappa-type opioid receptor; assay: Agonist activity at human recombinant KOR expressed in CHO cells assessed as cAMP accumulation relative to U-69,593; format: functional, cell-based
Mu-type opioid receptor [11] = target: T2, Mu-type opioid receptor; assay: Agonist activity at human recombinant MOR expressed in CHO cells assessed as cAMP accumulation relative to DAMGO; format: functional, cell-based
Mu-type opioid receptor [12] = target: T2, Mu-type opioid receptor; assay: Agonist activity at human recombinant MOR expressed in CHO cells assessed as cAMP accumulation at 10 uM relative to DAMGO; format: functional, cell-based
[13] = target: T3, Kappa-type opioid receptor; assay: Agonist activity at human recombinant KOR expressed in CHO cells assessed as cAMP accumulation at 10 uM relative to U-69,593; format: functional, cell-based
[14] = Apparent permeability at 10 uM incubated for 60 mins by RBT-24 kit; format: physicochemical; conditions: rat, not told
Mus musculus = assay: Antinociceptive activity in sc dosed ICR mouse assessed as reduction in acetic acid-induced writhing response administered 20 mins before acetic acid injection and measured for 20 mins post acetic acid injection; format: functional

T1 sequence (P41143 whole entry): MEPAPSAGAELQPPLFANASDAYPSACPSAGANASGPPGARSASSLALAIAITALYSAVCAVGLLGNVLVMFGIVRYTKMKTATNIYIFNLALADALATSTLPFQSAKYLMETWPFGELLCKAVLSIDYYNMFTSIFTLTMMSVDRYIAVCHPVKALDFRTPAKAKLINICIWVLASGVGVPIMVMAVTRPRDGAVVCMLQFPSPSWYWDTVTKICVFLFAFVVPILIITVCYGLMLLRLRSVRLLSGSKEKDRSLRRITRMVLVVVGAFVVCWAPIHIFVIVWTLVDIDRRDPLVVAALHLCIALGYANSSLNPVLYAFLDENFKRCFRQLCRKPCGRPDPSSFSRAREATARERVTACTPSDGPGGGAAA

| SMILES | Ki [1] [pM] | Ki (Mu-type opioid receptor [2]) [pM] | Ki [3] [pM] | Ratio Ki (Homo sapiens [4]) | Ratio Ki (Homo sapiens [5]) | EC50 [6] [pM] | Emax [7] [%] | EC50 (Mu-type opioid receptor [8]) [pM] | EC50 [9] [pM] | Emax [10] [%] | Emax (Mu-type opioid receptor [11]) [%] | Emax (Mu-type opioid receptor [12]) [%] | Emax [13] [%] | Papp at 1 h, 10 µM [14] [×10⁻⁶ cm/s] | ED50 (Mus musculus) [mg/kg] |
| --- | --- | --- | --- | --- | --- | --- | --- | --- | --- | --- | --- | --- | --- | --- | --- |
| Oc1ccc2c(c1)C13CCN(CC4CC4)C(C2)C12CCC1C3[C@@H](CN1c1ccccc1)C2 (stereo partly drawn) | 1260 | 953 | 2430 | 0.8 | 1.9 | 4700 | 82 | 10000 | 8100 | 54 | 50 |  |  |  |  |
| O=C(Oc1ccccc1)N1C[C@H]2CC34CCC1C2C31CCN(CC2CC2)C4Cc2ccc(O)cc21 (stereo partly drawn) | 833 | 826 | 522 | 1 | 0.6 | 1300 | 92 |  | 2500 | 27 |  | 5.6 |  |  |  |
| Oc1ccc2c(c1)C13CCN(CC4CC4)C(C2)C12CCC1C3[C@@H](CN1c1cnccn1)C2 (stereo partly drawn) | 356 | 813 | 479 | 2.3 | 1.3 | 430 | 71 |  | 200 | 24 |  | 5.7 |  |  |  |
| O=C(c1ccoc1)N1C[C@H]2CC34CCC1C2C31CCN(CC2CC2)C4Cc2ccc(O)cc21 (stereo partly drawn) | 313 | 455 | 221 | 1.5 | 0.7 | 230 | 93 | 155000 | 1400 | 33 | 50 |  |  |  |  |
| Oc1ccc2c(c1)C13CCN(CC4CC4)C(C2)C12CCC1C3[C@@H](CN1Cc1ccccc1)C2 (stereo partly drawn) | 585 | 3440 | 4260 | 5.9 | 7.3 | 420 | 90 |  | 4500 | 36 |  | 18 |  |  |  |
| O=C(c1ccccc1)N1C[C@H]2CC34CCC1C2C31CCN(CC2CC2)C4Cc2ccc(O)cc21 (stereo partly drawn) | 211 | 578 | 362 | 2.7 | 1.7 | 310 | 93 |  |  |  |  | 4.7 | 5.5 | 18.5 | 1.15 |
| O=C(Nc1ccccc1)N1C[C@H]2CC34CCC1C2C31CCN(CC2CC2)C4Cc2ccc(O)cc21 (stereo partly drawn) | 265 | 545 | 336 | 2.1 | 1.3 | 1500 | 42 |  | 300 | 44 |  | 6.2 |  |  |  |
| Oc1ccc2c(c1)C13CCN(CC4CC4)C(C2)C12CCC1C3[C@@H](CN1CC1CCCCC1)C2 (stereo partly drawn) | 1460 | 2500 | 781 | 1.7 | 0.5 | 1700 | 82 | 21000 | 5700 | 45 | 17 |  |  |  |  |
| O=C(c1ccccn1)N1C[C@H]2CC34CCC1C2C31CCN(CC2CC2)C4Cc2ccc(O)cc21 (stereo partly drawn) | 458 | 726 | 564 | 1.6 | 1.2 | 350 | 85 |  |  |  |  | 6.5 | 18 |  |  |
